Measured values from the kinase profiling compilation of Christmann-Franck et al. (2016).

Legend:
Experiment in all cases: radiometric filter-binding kinase assay
[1] = biological target: MAP2K1 (human) (UniProt Q02750)
[2] = biological target: PRKCA (human) (UniProt P17252)
[3] = biological target: PAK7 (human) (UniProt Q9P286)
[4] = biological target: MAPKAPK2 (human) (UniProt P49137)
[5] = biological target: MARK2 (human) (UniProt Q7KZI7)
[6] = biological target: BRSK1 (human) (UniProt Q8TDC3)
[7] = biological target: RIPK2 (human) (UniProt O43353)
[8] = system: LCK (mouse); settings: accession and sequence are those of the human protein
[9] = biological target: MST4 (human) (UniProt Q9P289)
Chain of MST4 (human) (Q9P289 whole entry, looked up): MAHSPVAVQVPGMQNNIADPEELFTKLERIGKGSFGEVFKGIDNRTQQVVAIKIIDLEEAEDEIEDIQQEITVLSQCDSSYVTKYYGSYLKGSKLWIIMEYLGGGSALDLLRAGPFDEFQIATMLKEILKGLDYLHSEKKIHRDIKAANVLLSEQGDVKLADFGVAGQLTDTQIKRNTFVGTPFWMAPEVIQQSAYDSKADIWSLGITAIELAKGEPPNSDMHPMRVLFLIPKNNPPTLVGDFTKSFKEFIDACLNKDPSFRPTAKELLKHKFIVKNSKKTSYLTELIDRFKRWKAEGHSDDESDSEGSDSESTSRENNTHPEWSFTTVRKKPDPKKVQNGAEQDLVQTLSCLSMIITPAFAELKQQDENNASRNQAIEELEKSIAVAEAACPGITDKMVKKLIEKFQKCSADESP

[10] = system: PRKAA1 or PRKAA2 (rat); settings: accession and sequence are those of the human protein
[11] = biological target: PHKG1 (human) (UniProt Q16816)
Chain of PHKG1 (human) (Q16816 whole entry, looked up): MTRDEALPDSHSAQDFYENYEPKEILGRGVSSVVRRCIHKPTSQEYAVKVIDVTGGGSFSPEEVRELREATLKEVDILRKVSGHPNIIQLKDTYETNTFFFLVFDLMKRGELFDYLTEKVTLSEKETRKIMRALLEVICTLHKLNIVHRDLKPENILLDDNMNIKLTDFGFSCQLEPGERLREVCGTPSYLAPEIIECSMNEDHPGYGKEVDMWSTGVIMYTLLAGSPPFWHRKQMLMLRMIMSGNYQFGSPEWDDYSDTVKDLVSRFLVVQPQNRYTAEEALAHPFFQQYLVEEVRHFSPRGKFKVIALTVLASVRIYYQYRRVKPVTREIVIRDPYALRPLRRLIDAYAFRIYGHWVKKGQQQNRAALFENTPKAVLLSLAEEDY

[12] = biological target: CSK (human) (UniProt P41240)
[13] = biological target: ERBB4 (human) (UniProt Q15303)
[14] = biological target: PRKACA (human) (UniProt P17612)
[15] = biological target: EPHA2 (human) (UniProt P29317)
[16] = biological target: NEK2 (human) (UniProt P51955)
Chain of NEK2 (human) (P51955 whole entry, looked up): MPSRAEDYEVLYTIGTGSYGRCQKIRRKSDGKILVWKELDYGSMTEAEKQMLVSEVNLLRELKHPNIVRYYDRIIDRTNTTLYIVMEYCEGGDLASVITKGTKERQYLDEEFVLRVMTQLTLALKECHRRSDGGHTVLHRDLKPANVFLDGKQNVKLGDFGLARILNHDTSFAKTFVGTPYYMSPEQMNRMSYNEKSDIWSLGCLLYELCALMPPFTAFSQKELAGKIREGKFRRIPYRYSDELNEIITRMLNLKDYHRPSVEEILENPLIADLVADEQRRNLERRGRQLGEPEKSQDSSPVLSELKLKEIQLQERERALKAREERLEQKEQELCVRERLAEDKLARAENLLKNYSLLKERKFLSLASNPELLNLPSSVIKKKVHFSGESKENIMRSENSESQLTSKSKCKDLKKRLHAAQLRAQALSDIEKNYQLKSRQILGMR

[17] = biological target: NUAK1 (human) (UniProt O60285)
[18] = biological target: CAMKK2 (human) (UniProt Q96RR4)
[19] = biological target: HIPK3 (human) (UniProt Q9H422)
[20] = biological target: CDK2 CCNA2 (human) (UniProt P20248+P24941)
[21] = biological target: CaMK1 (human) (UniProt Q14012)
[22] = biological target: MINK1 (human) (UniProt Q8N4C8); settings: compound 10.0 µM
[23] = biological target: MAPK15 (human) (UniProt Q8TD08)
[24] = biological target: INSR (human) (UniProt P06213)
Chain of INSR (human) (P06213 whole entry, looked up): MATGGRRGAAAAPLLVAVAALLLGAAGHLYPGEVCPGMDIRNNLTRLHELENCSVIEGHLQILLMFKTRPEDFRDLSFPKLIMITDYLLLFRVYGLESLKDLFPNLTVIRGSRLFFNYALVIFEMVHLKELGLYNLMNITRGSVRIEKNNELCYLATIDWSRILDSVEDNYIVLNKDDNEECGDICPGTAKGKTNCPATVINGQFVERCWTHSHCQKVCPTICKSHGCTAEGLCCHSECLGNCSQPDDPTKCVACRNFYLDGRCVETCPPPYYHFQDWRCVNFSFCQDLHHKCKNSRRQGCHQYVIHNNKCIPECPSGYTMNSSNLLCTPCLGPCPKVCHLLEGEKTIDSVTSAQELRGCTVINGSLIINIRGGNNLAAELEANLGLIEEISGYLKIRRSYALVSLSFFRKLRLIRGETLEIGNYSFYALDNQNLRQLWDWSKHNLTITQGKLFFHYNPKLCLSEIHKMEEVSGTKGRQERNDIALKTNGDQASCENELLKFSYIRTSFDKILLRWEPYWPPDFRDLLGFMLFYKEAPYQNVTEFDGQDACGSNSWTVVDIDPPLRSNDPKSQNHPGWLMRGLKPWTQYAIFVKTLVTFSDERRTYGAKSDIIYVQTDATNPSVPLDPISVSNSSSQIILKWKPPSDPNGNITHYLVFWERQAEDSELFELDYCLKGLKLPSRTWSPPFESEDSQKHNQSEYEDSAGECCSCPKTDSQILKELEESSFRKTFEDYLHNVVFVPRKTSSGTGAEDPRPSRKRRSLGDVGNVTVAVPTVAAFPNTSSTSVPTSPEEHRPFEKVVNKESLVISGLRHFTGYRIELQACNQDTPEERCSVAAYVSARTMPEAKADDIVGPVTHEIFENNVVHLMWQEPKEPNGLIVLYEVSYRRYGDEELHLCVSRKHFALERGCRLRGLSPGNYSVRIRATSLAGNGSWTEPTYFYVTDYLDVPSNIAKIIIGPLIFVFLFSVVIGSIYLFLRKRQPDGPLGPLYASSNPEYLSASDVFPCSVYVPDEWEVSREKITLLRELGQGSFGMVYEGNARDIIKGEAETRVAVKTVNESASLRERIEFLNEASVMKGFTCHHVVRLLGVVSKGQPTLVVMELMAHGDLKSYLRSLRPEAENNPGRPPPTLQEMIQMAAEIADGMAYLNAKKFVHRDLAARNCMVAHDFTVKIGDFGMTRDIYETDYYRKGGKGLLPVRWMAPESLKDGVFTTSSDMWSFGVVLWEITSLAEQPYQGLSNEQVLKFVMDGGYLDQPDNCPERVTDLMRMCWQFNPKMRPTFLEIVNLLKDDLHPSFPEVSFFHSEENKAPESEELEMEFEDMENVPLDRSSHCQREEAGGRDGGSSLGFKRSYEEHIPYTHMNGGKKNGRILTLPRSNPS

[25] = biological target: RPS6KA5 KD1 KD2 (human) (UniProt O75582)
Chain of RPS6KA5 KD1 KD2 (human) (O75582 whole entry, looked up): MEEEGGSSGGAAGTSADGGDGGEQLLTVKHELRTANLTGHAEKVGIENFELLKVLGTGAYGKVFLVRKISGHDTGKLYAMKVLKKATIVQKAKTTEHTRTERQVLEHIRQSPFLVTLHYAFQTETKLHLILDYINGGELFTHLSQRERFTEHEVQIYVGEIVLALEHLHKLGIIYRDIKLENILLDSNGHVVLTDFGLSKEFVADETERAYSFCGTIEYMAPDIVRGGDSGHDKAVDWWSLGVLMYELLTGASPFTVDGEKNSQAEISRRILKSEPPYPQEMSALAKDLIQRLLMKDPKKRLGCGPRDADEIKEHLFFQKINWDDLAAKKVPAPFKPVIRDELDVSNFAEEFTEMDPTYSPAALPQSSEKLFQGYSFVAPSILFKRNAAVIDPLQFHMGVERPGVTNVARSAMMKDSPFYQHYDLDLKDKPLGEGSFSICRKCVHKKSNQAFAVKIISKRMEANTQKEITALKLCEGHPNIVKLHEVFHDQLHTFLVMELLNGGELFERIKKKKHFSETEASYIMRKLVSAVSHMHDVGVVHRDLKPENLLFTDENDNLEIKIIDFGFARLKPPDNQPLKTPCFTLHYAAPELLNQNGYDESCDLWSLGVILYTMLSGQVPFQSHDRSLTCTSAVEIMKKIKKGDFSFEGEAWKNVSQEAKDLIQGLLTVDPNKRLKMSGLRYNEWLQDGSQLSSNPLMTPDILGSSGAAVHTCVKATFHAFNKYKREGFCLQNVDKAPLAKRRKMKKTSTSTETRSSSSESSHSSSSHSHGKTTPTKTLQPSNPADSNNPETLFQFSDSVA

[26] = biological target: NEK6 (human) (UniProt Q9HC98)
[27] = biological target: INSRR (human) (UniProt P14616)
[28] = biological target: MKNK1 (human) (UniProt Q9BUB5)
[29] = biological target: DYRK2 (human) (UniProt Q92630)
[30] = biological target: SRPK1 (human) (UniProt Q96SB4)
[31] = biological target: BTK (human) (UniProt Q06187)

Chain of MAP2K1 (human) (Q02750 whole entry, looked up): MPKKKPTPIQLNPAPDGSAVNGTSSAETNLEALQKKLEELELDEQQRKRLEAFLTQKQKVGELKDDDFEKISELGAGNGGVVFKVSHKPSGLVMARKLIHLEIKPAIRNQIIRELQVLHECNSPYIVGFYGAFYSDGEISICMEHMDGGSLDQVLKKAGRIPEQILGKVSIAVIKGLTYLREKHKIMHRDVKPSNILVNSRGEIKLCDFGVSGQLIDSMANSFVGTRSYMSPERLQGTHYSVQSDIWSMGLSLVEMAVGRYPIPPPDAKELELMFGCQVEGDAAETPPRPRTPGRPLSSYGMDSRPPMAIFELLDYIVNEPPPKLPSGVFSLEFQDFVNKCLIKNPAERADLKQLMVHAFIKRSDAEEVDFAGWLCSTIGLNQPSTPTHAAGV
Chain of MAPKAPK2 (human) (P49137 whole entry, looked up): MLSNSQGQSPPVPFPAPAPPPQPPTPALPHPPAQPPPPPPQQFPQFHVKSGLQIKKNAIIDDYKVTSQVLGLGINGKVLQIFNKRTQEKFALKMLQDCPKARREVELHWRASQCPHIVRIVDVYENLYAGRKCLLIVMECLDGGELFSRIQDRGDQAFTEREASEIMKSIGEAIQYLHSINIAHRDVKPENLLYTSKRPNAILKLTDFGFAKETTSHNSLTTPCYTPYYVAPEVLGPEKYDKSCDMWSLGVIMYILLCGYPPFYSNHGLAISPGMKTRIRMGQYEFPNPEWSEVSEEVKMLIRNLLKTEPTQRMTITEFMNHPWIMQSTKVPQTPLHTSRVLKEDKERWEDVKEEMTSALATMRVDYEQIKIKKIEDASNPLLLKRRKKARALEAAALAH

O=C(O)c1cc(N=Nc2ccc(S(=O)(=O)Nc3ccccn3)cc2)ccc1O
residual activity ([1]; compound 1.0 µM): 86%
residual activity ([1]; compound 10.0 µM): 91%
residual activity ([2]; compound 1.0 µM): 90%
residual activity ([2]; compound 10.0 µM): 85%
residual activity ([3]; compound 1.0 µM): 104%
residual activity ([3]; compound 10.0 µM): 96%
residual activity ([4]; compound 1.0 µM): 100%
residual activity ([4]; compound 10.0 µM): 106%
residual activity ([5]; compound 1.0 µM): 108%
residual activity ([5]; compound 10.0 µM): 107%
residual activity ([6]; compound 1.0 µM): 97%
residual activity ([6]; compound 10.0 µM): 92%
residual activity ([7]; compound 1.0 µM): 115%
residual activity ([7]; compound 10.0 µM): 95%
residual activity ([8]; compound 1.0 µM): 102%
residual activity ([8]; compound 10.0 µM): 97%
residual activity ([9]; compound 1.0 µM): 102%
residual activity ([9]; compound 10.0 µM): 104%
residual activity ([10]; compound 1.0 µM): 101%
residual activity ([11]; compound 1.0 µM): 104%
residual activity ([11]; compound 10.0 µM): 94%
residual activity ([12]; compound 1.0 µM): 119%
residual activity ([12]; compound 10.0 µM): 119%
residual activity ([13]; compound 1.0 µM): 100%
residual activity ([13]; compound 10.0 µM): 77%
residual activity ([14]; compound 1.0 µM): 111%
residual activity ([14]; compound 10.0 µM): 114%
residual activity ([15]; compound 1.0 µM): 119%
residual activity ([16]; compound 10.0 µM): 97%
residual activity ([17]; compound 1.0 µM): 107%
residual activity ([17]; compound 10.0 µM): 86%
residual activity ([18]; compound 1.0 µM): 127%
residual activity ([18]; compound 10.0 µM): 122%
residual activity ([19]; compound 1.0 µM): 98%
residual activity ([19]; compound 10.0 µM): 103%
residual activity ([20]; compound 1.0 µM): 93%
residual activity ([20]; compound 10.0 µM): 107%
residual activity ([21]; compound 1.0 µM): 97%
residual activity ([21]; compound 10.0 µM): 91%
residual activity [22]: 57%
residual activity ([23]; compound 1.0 µM): 111%
residual activity ([23]; compound 10.0 µM): 109%
residual activity ([24]; compound 1.0 µM): 101%
residual activity ([24]; compound 10.0 µM): 97%
residual activity ([25]; compound 1.0 µM): 109%
residual activity ([25]; compound 10.0 µM): 95%
residual activity ([26]; compound 1.0 µM): 98%
residual activity ([26]; compound 10.0 µM): 97%
residual activity ([27]; compound 10.0 µM): 80%
residual activity ([28]; compound 1.0 µM): 97%
residual activity ([28]; compound 10.0 µM): 79%
residual activity ([29]; compound 1.0 µM): 99%
residual activity ([29]; compound 10.0 µM): 79%
residual activity ([30]; compound 1.0 µM): 106%
residual activity ([30]; compound 10.0 µM): 104%
residual activity ([31]; compound 1.0 µM): 97%
residual activity ([31]; compound 10.0 µM): 74%

NC(=O)Nc1ccc2c(c1)/C(=C/c1cc(-c3cccnc3)c[nH]1)C(=O)N2
residual activity ([1]; compound 0.1 µM): 8%
residual activity ([1]; compound 1.0 µM): 1%
residual activity ([1]; compound 10.0 µM): 2%
residual activity ([2]; compound 0.1 µM): 106%
residual activity ([2]; compound 1.0 µM): 83%
residual activity ([2]; compound 10.0 µM): 27%
residual activity ([3]; compound 0.1 µM): 75%
residual activity ([3]; compound 1.0 µM): 43%
residual activity ([3]; compound 10.0 µM): 8%
residual activity ([4]; compound 0.1 µM): 86%
residual activity ([4]; compound 1.0 µM): 49%
residual activity ([4]; compound 10.0 µM): 10%
residual activity ([8]; compound 0.1 µM): 44%
residual activity ([8]; compound 1.0 µM): 10%
residual activity ([8]; compound 10.0 µM): 3%
residual activity ([9]; compound 1.0 µM): 18%
residual activity ([9]; compound 10.0 µM): 21%
residual activity ([10]; compound 0.1 µM): 5%
residual activity ([10]; compound 1.0 µM): 6%
residual activity ([10]; compound 10.0 µM): 4%
residual activity ([11]; compound 0.1 µM): 13%
residual activity ([11]; compound 1.0 µM): 1%
residual activity ([11]; compound 10.0 µM): 0%
residual activity ([12]; compound 0.1 µM): 98%
residual activity ([12]; compound 1.0 µM): 69%
residual activity ([12]; compound 10.0 µM): 42%
residual activity ([14]; compound 0.1 µM): 78%
residual activity ([14]; compound 1.0 µM): 66%
residual activity ([14]; compound 10.0 µM): 32%
residual activity ([15]; compound 0.1 µM): 93%
residual activity ([15]; compound 1.0 µM): 54%
residual activity ([15]; compound 10.0 µM): 20%
residual activity ([16]; compound 0.1 µM): 100%
residual activity ([16]; compound 1.0 µM): 75%
residual activity ([16]; compound 10.0 µM): 28%
residual activity ([18]; compound 0.1 µM): 67%
residual activity ([18]; compound 1.0 µM): 41%
residual activity ([18]; compound 10.0 µM): 35%
residual activity ([20]; compound 0.1 µM): 63%
residual activity ([20]; compound 1.0 µM): 14%
residual activity ([20]; compound 10.0 µM): 6%
residual activity ([21]; compound 0.1 µM): 112%
residual activity ([21]; compound 1.0 µM): 69%
residual activity ([21]; compound 10.0 µM): 19%
residual activity ([23]; compound 0.1 µM): 5%
residual activity ([23]; compound 1.0 µM): 2%
residual activity ([23]; compound 10.0 µM): 1%
residual activity ([24]; compound 0.1 µM): 112%
residual activity ([24]; compound 1.0 µM): 101%
residual activity ([24]; compound 10.0 µM): 26%
residual activity ([25]; compound 0.1 µM): 98%
residual activity ([25]; compound 1.0 µM): 73%
residual activity ([25]; compound 10.0 µM): 30%
residual activity ([26]; compound 0.1 µM): 92%
residual activity ([26]; compound 1.0 µM): 76%
residual activity ([26]; compound 10.0 µM): 38%
residual activity ([27]; compound 0.1 µM): 35%
residual activity ([27]; compound 1.0 µM): 16%
residual activity ([27]; compound 10.0 µM): 5%
residual activity ([28]; compound 0.1 µM): 80%
residual activity ([28]; compound 1.0 µM): 54%
residual activity ([28]; compound 10.0 µM): 30%
residual activity ([29]; compound 0.1 µM): 19%
residual activity ([29]; compound 1.0 µM): 2%
residual activity ([29]; compound 10.0 µM): 0%
residual activity ([30]; compound 0.1 µM): 90%
residual activity ([30]; compound 1.0 µM): 75%
residual activity ([30]; compound 10.0 µM): 36%
residual activity ([31]; compound 0.1 µM): 86%
residual activity ([31]; compound 1.0 µM): 29%
residual activity ([31]; compound 10.0 µM): 9%
